Data as given in US8431702B2, “Therapeutically useful substituted hydropyrido [3,2,1-ij] quinoline compounds” (Allergan, Inc., priority 2008, dated 2013).
pIC50: −log10 of the molar value. Read-outs that look alike come from different tables or passages of the source.

Target: T1, human S1P3 receptor (Homo sapiens, UniProt Q99500)
T1 construct: expressed in transfected cells
Assay: FLIPR calcium (Fluo-4) assay for activation or block of activation of human S1P3 receptor in T24 cells
Assay type: cell-based
Experimental: The compounds of the invention are assessed for their ability to activate or block activation of the human S1P3 receptor in T24 cells stably expressing the human S1P3 receptor using the method described in paragraph [0067] of United States Patent Application Publication No. 20070232682, which published on Oct. 4, 2007, which is hereby incorporated by reference in its entirety.
Ten thousands cells/well are plated into 384-well poly-D-lysine coated plates one day prior to use. The growth media for the S1P3 receptor expressing cell line is McCoy's 5A medium supplemented with 10% charcoal-treated fetal bovine serum (FBS), 1% antibiotic-antimycotic and 400 μg/ml geneticin. On the day of the experiment, the cells are washed twice with Hank's Balanced Salt Solution supplemented with 20 mM HEPES (HBSS/Hepes buffer). The cells are then dye loaded with 2 μM Fluo-4 diluted in the HBSS/Hepes buffer with 1.25 mM Probenecid and incubated at 37° C. for 40 minutes. Extracellular dye is removed by washing the cell plates four times prior to placing the plates in the FLIPR (Fluorometric Imaging Plate Reader, Molecular Devices). Ligands are diluted in HBSS/Hepes buffer and prepared in 384-well microplates. The positive control, Sphingosine-1-phosphate (S1P), is diluted in HBSS/Hepes buffer with 4 mg/ml fatty acid free bovine serum albumin. The FLIPR transfers 12.5 μl from the ligand microplate to the cell plate and takes fluorescent measurements for 75 seconds, taking readings every second, and then for 2.5 minutes, taking readings every 10 seconds. Compounds are tested over the concentration range of 0.61 nM to 10,000 nM. Data for calcium ion (Ca^+2) responses are obtained in arbitrary fluorescence units and not translated into Ca^+2 concentrations. IC50 values (nM) are determined through a […] analysis using the Levenburg Marquardt algorithm.

[1] = T24 cells stably expressing the human S1P3 receptor, tested over 0.61 nM to 10,000 nM
[2] = T24 cells stably expressing the human S1P3 receptor, tested over 0.61 nM to 10,000 nM, read-out: S1P3 IC50

T1 sequence (Q99500 whole entry): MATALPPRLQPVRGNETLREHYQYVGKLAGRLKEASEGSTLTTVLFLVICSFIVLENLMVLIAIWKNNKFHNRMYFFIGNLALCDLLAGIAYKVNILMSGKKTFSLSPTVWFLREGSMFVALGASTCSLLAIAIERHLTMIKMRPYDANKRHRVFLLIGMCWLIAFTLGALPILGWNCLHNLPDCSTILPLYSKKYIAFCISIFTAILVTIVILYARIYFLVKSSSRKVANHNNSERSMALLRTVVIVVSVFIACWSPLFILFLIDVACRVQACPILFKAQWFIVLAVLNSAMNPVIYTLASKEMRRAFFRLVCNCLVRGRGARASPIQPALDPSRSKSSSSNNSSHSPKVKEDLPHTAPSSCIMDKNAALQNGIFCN

O=C(Nc1cc2c3c(c1)C(c1ccc(F)cc1)CCN3CCC2c1ccc(F)cc1)OCCF (centres unmarked) [Compound 067]
S1P3 % Inhibition [1]: 98% | pIC50 [2]: 8.10

CCOC(=O)Nc1cc2c3c(c1)C(c1cccc(F)c1)CCN3CCC2c1cccc(F)c1 (centres unmarked) [Compound 093, Ethyl 1,7-bis(3-fluorophenyl)-1,2,3,5,6,7-hexahydropyrido[3,2,1-ij]quinolin-9-ylcarbamate]
S1P3 % Inhibition [1]: 102%

CCCOC(=O)Nc1cc2c3c(c1)C(c1cccc(F)c1)CCN3CCC2c1cccc(F)c1 (centres unmarked) [Compound 094, Propyl 1,7-bis(3-fluorophenyl)-1,2,3,5,6,7-hexahydropyrido[3,2,1-ij]quinolin-9-ylcarbamate]
S1P3 % Inhibition [1]: 101%

O=C(Nc1cc2c3c(c1)C(c1ccccc1)CCN3CCC2c1ccccc1)OCCF (centres unmarked) [Compound 095, 2-fluoroethyl 1,7-diphenyl-1,2,3,5,6,7-hexahydropyrido[3,2,1-ij]quinolin-9-ylcarbamate]
S1P3 % Inhibition [1]: 102%

CC(C)(C)NC(=O)Nc1cc2c3c(c1)C(c1ccccc1)CCN3CCC2c1ccccc1 (centres unmarked) [Compound 148, 1-tert-butyl-3-(1,7-diphenyl-1,2,3,5,6,7-hexahydropyrido[3,2,1-ij]quinolin-9-yl)urea]
S1P3 % Inhibition [1]: 101%

CCCCOC(=O)Nc1cc2c3c(c1)C(c1cccc(F)c1)CCN3CCC2c1cccc(F)c1 (centres unmarked) [Compound 202, Butyl 1,7-bis(3-fluorophenyl)-1,2,3,5,6,7-hexahydropyrido[3,2,1-ij]quinolin-9-ylcarbamate]
S1P3 % Inhibition [1]: 98%

O=C(Nc1cc2c3c(c1)C(c1ccccc1)CCN3CCC2c1ccccc1)OCCCCl (centres unmarked) [Compound 205, 3-chloropropyl 1,7-diphenyl-1,2,3,5,6,7-hexahydropyrido[3,2,1-ij]quinolin-9-ylcarbamate]
S1P3 % Inhibition [1]: 99%

O=C(Nc1cc2c3c(c1)C(c1ccccc1)CCN3CCC2c1ccccc1)OCCCCCl (centres unmarked) [Compound 206, 4-chlorobutyl 1,7-diphenyl-1,2,3,5,6,7-hexahydropyrido[3,2,1-ij]quinolin-9-ylcarbamate]
S1P3 % Inhibition [1]: 100%

CCNC(=O)Nc1cc2c3c(c1)[C@](C)(c1ccccc1)CCN3CC[C@@]2(C)c1ccccc1 [Compound 249, 1-((1S,7S)-1,7-dimethyl-1,7-diphenyl-1,2,3,5,6,7-hexahydropyrido[3,2,1-ij]quinolin-9-yl)-3-ethylurea]
S1P3 % Inhibition [1]: 100% | pIC50 [2]: 6.71

CCCNC(=O)Nc1cc2c3c(c1)[C@](C)(c1ccccc1)CCN3CC[C@@]2(C)c1ccccc1 [Compound 250, 1-((1S,7S)-1,7-dimethyl-1,7-diphenyl-1,2,3,5,6,7-hexahydropyrido[3,2,1-ij]quinolin-9-yl)-3-propylurea]
S1P3 % Inhibition [1]: 100% | pIC50 [2]: 6.28

CCCNC(=S)Nc1cc2c3c(c1)C(c1ccccc1)CCN3CCC2c1ccccc1 (centres unmarked) [Compound 255, 1-(1,7-diphenyl-1,2,3,5,6,7-hexahydropyrido[3,2,1-ij]quinolin-9-yl)-3-propylthiourea]
S1P3 % Inhibition [1]: 99%

CCCCCCNC(=S)Nc1cc2c3c(c1)C(c1ccccc1)CCN3CCC2c1ccccc1 (centres unmarked) [Compound 256, 1-(1,7-diphenyl-1,2,3,5,6,7-hexahydropyrido[3,2,1-ij]quinolin-9-yl)-3-hexylthiourea]
S1P3 % Inhibition [1]: 100%

O=C(NCc1ccoc1)Nc1cc2c3c(c1)C(c1ccccc1)CCN3CCC2c1ccccc1 (centres unmarked) [Compound 258, 1-(1,7-diphenyl-1,2,3,5,6,7-hexahydropyrido[3,2,1-ij]quinolin-9-yl)-3-(furan-3-ylmethyl)urea]
S1P3 % Inhibition [1]: 100%

COC(=O)Nc1cc2c3c(c1)C(c1ccc(F)cc1)CCN3CCC2c1ccc(F)cc1 (centres unmarked) [Compound 268]
S1P3 % Inhibition [1]: 98% | pIC50 [2]: 8.30

COC(=O)Nc1cc2c3c(c1)C(c1ccccc1)CCN3CCC2c1ccccc1 (centres unmarked) [Compound 272, methyl 1,7-diphenyl-1,2,3,5,6,7-hexahydropyrido[3,2,1-ij]quinolin-9-ylcarbamate]
S1P3 % Inhibition [1]: 102%

CCOC(=O)Nc1cc2c3c(c1)C(c1ccccc1)CCN3CCC2c1ccccc1 (centres unmarked) [Compound 273, Ethyl 1,7-diphenyl-1,2,3,5,6,7-hexahydropyrido[3,2,1-ij]quinolin-9-ylcarbamate]
S1P3 % Inhibition [1]: 101%

CC(C)COC(=O)Nc1cc2c3c(c1)C(c1ccccc1)CCN3CCC2c1ccccc1 (centres unmarked) [Compound 274, Isobutyl 1,7-diphenyl-1,2,3,5,6,7-hexahydropyrido[3,2,1-ij]quinolin-9-ylcarbamate]
S1P3 % Inhibition [1]: 100%

CCCOC(=O)Nc1cc2c3c(c1)C(c1ccccc1)CCN3CCC2c1ccccc1 (centres unmarked) [Compound 275, Propyl 1,7-diphenyl-1,2,3,5,6,7-hexahydropyrido[3,2,1-ij]quinolin-9-ylcarbamate]
S1P3 % Inhibition [1]: 100%

CCCCOC(=O)Nc1cc2c3c(c1)C(c1ccccc1)CCN3CCC2c1ccccc1 (centres unmarked) [Compound 276, Butyl 1,7-diphenyl-1,2,3,5,6,7-hexahydropyrido[3,2,1-ij]quinolin-9-ylcarbamate]
S1P3 % Inhibition [1]: 101%

O=C(Nc1cc2c3c(c1)C(c1ccccc1)CCN3CCC2c1ccccc1)Oc1ccccc1 (centres unmarked) [Compound 277, Phenyl 1,7-diphenyl-1,2,3,5,6,7-hexahydropyrido[3,2,1-ij]quinolin-9-ylcarbamate]
S1P3 % Inhibition [1]: 91%

O=C(Nc1cc2c3c(c1)C(c1ccccc1)CCN3CCC2c1ccccc1)OCc1ccccc1 (centres unmarked) [Compound 278, Benzyl 1,7-diphenyl-1,2,3,5,6,7-hexahydropyrido[3,2,1-ij]quinolin-9-ylcarbamate]
S1P3 % Inhibition [1]: 101%

C#CCOC(=O)Nc1cc2c3c(c1)C(c1ccccc1)CCN3CCC2c1ccccc1 (centres unmarked) [Compound 352, Prop-2-ynyl 1,7-diphenyl-1,2,3,5,6,7-hexahydropyrido[3,2,1-ij]quinolin-9-ylcarbamate]
S1P3 % Inhibition [1]: 97%

CCCOC(=O)Nc1cc2c3c(c1)[C@@](C)(c1ccccc1)CCN3CC[C@@]2(C)c1ccccc1 [Compound 355, Propyl (1R,7S)-1,7-dimethyl-1,7-diphenyl-1,2,3,5,6,7-hexahydropyrido[3,2,1-ij]quinolin-9-ylcarbamate]
S1P3 % Inhibition [1]: 98% | pIC50 [2]: 6.50

CN(C)C(=O)Nc1cc2c3c(c1)C(c1ccccc1)CCN3CCC2c1ccccc1 (centres unmarked) [Compound 405, 3-(1,7-diphenyl-1,2,3,5,6,7-hexahydropyrido[3,2,1-ij]quinolin-9-yl)-1,1-dimethylurea]
S1P3 % Inhibition [1]: 98%

CCCNC(=O)c1cc2c3c(c1)C(c1ccccc1)CCN3CCC2c1ccccc1 (centres unmarked) [Compound 409, 1,7-diphenyl-N-propyl-1,2,3,5,6,7-hexahydropyrido[3,2,1-ij]quinoline-9-carboxamide]
S1P3 % Inhibition [1]: 89% | pIC50 [2]: 6.06

CCCCNC(=O)c1cc2c3c(c1)C(c1ccccc1)CCN3CCC2c1ccccc1 (centres unmarked) [Compound 481, N-butyl-1,7-diphenyl-1,2,3,5,6,7-hexahydropyrido[3,2,1-ij]quinoline-9-carboxamide]
S1P3 % Inhibition [1]: 98% | pIC50 [2]: 6.68

CCNC(=O)Nc1cc2c3c(c1)C(c1ccccc1)CCN3CCC2c1ccccc1 (centres unmarked) [Compound 484, 1-(1,7-diphenyl-1,2,3,5,6,7-hexahydropyrido[3,2,1-ij]quinolin-9-yl)-3-ethylurea]
S1P3 % Inhibition [1]: 101%

CCCCNC(=O)Nc1cc2c3c(c1)C(c1ccccc1)CCN3CCC2c1ccccc1 (centres unmarked) [Compound 485, 1-Butyl-3-(1,7-diphenyl-1,2,3,5,6,7-hexahydropyrido[3,2,1-ij]quinolin-9-yl)urea]
S1P3 % Inhibition [1]: 100%

CCCCCNC(=O)Nc1cc2c3c(c1)C(c1ccccc1)CCN3CCC2c1ccccc1 (centres unmarked) [Compound 486, 1-(1,7-diphenyl-1,2,3,5,6,7-hexahydropyrido[3,2,1-ij]quinolin-9-yl)-3-pentylurea]
S1P3 % Inhibition [1]: 100% | pIC50 [2]: 7.09

CCCCCCNC(=O)Nc1cc2c3c(c1)C(c1ccccc1)CCN3CCC2c1ccccc1 (centres unmarked) [Compound 487, 1-(1,7-diphenyl-1,2,3,5,6,7-hexahydropyrido[3,2,1-ij]quinolin-9-yl)-3-hexylurea]
S1P3 % Inhibition [1]: 100%

CC(C)(C)NC(=O)Nc1cc2c3c(c1)[C@@](C)(c1ccccc1)CCN3CC[C@@]2(C)c1ccccc1 [Compound 580, 1-t-butyl-3-((1R,7S)-1,7-dimethyl-1,7-diphenyl-1,2,3,5,6,7-hexahydropyrido[3,2,1-ij]quinolin-9-yl)urea]
pIC50: 7.21 | S1P3 % Inhibition [1]: 99%

CC(C)(C)NC(=O)Nc1cc2c3c(c1)[C@](C)(c1ccccc1)CCN3CC[C@@]2(C)c1ccccc1 [Compound 581, 1-t-butyl-3-((1S,7S)-1,7-dimethyl-1,7-diphenyl-1,2,3,5,6,7-hexahydropyrido[3,2,1-ij]quinolin-9-yl)urea]
S1P3 % Inhibition [1]: 98% | pIC50 [2]: 6.46

CSC(=O)Nc1cc2c3c(c1)[C@@](C)(c1ccccc1)CCN3CC[C@@]2(C)c1ccccc1 [Compound 582, S-methyl (1R,7S)-1,7-dimethyl-1,7-diphenyl-1,2,3,5,6,7-hexahydropyrido[3,2,1-ij]quinolin-9-ylcarbamothioate]
pIC50: 8.40 | S1P3 % Inhibition [1]: 99%
